{"source": "patent US7838463B2", "about": "“Safeners based on acrylic-aliphatic carboxylic acid derivatives” (Bayer CropScience AG, priority 2003, dated 2010)", "assay_type_in_all_cases": "in vivo", "key": {"[1]": {"test_system": "Amaranthus retroflexus", "assay": "Post-emergence application of herbicide H2 (foramsulfuron) and safener by the tank mix method: herbicidal action", "conditions": "safener 250 g a.i./ha + herbicide H2 (foramsulfuron) 40 g a.i./ha, post-emergence tank mix; four weeks", "source_text": "(§1) Seeds of various crop plants and weed species were sown in sandy loam soil in round plastic pots of a diameter of 13 cm and covered with a layer of sandy loam of a thickness of about 1 cm. The pots were placed in a greenhouse under favorable growth conditions for a period of about two to three weeks, allowing the plants to reach a growth stage of 2 to 4 leaves. The herbicides in the form of liquid (for example emulsion concentrates) or dry (for example water-dispersible powders) formulations were mixed with a standard additive (based on rapeseed oil methyl ester), diluted with deionized water to the required concentrations and applied to the green parts of the plants and the uncovered part of the soil surface with a spray bar using a water application rate of 300 liters per hectare. In the experiment shown below, safener and the herbicide foramsulfuron were in each case used as 20 percent strength water-dispersible powder (results see table 1.2.1). The pots were placed in a greenhouse under favorable growth conditions. Visual scoring of the herbicidal action was carried out four weeks after the herbicide application. Evaluation was carried out on a percentage basis by comparison with untreated control plants (0%=no noticeable effect compared with the untreated plant, 100%=treated plant dies)."}, "[2]": {"test_system": "Setaria viridis", "assay": "Post-emergence application of herbicide H2 (foramsulfuron) and safener by the tank mix method: herbicidal action", "conditions": "safener 250 g a.i./ha + herbicide H2 (foramsulfuron) 40 g a.i./ha, post-emergence tank mix; four weeks", "source_text": "as §1"}, "[3]": {"test_system": "Zea mays (corn), cv. 'Lorenzo'", "assay": "Post-emergence application of herbicide H2 (foramsulfuron) and safener by the tank mix method: crop damage", "conditions": "safener 250 g a.i./ha + herbicide H2 (foramsulfuron) 40 g a.i./ha, post-emergence tank mix; for Safener action as % damage reduction in crop plants: ZEAMA, versus herbicide alone; for % damage in ZEAMA: visual scoring four weeks after application", "source_text": "as §1"}, "[4]": {"test_system": "Amaranthus retroflexus", "assay": "Post-emergence application of herbicide H3 (glufosinate-ammonium) and safener by the tank mix method: herbicidal action", "conditions": "four weeks", "source_text": "(§2) Seeds of various crop plants and weed species were sown in sandy loam soil in round plastic pots of a diameter of 13 cm and covered with a layer of sandy loam of a thickness of about 1 cm. The pots were placed in a greenhouse under favorable growth conditions for a duration of about two to three weeks, allowing the plants to reach a growth stage of 2 to 4 leaves. The herbicides, in the form of liquid (for example emulsion concentrates, aqueous solutions) or dry (for example water-dispersible powders) formulations, were diluted with deionized water to the required concentrations and applied to the green parts of the plants and the uncovered part of the surface of the soil with a spray bar using a water application rate of 300 liters per hectare. In the experiment shown below, the safeners were used as 20 percent strength water-dispersible powders and the herbicide glufosinate-ammonium as a commercial 20 percent strength aqueous surfactant-containing solution (results see table 1.2.2).\n(§3) The pots were placed in a greenhouse under favorable growth conditions. Visual scoring of the herbicidal action was carried out four weeks after the herbicidal application. Evaluation was carried out on a percentage basis by comparison with untreated control plants (0%=no noticeable effect compared with the untreated plant, 100%=treated plant dies)."}, "[5]": {"test_system": "Chenopodium album", "assay": "Post-emergence application of herbicide H3 (glufosinate-ammonium) and safener by the tank mix method: herbicidal action", "conditions": "four weeks", "source_text": "as §2, §3"}, "[6]": {"test_system": "Zea mays (corn), cv. 'Lorenzo'", "assay": "Pre-emergence application of herbicide H1 (isoxaflutole) after seed dressing with safener", "conditions": "for % damage in ZEAMA: four weeks", "method": "(§4) The number of crop plant seeds required for each application rate of safener was calculated. Sufficient seeds were weighed-out into glass bottles having a screw-on lid. The volume of the glass bottles was approximately twice that of the seeds weighed out.\n(§5) The safeners were formulated as 20 percent strength water-dispersible powders. These formulations were weighed out to give the required application rates (g of a.i./kg of seed). The samples were added to the seed in the glass containers, and sufficient water to form a suitable seed dressing was then added. The glass bottles were closed and then mounted in an overhead shaker (which turns the bottles at moderate speed for a period of up to one hour) so that the seeds were uniformly covered with the seed dressing. The bottles were opened and the seed was ready for use in pre-emergence or post-emergence experiments, as described below.\n(§6) The seeds which had been treated with safeners and untreated seeds as controls were sown in sandy loam soil in round plastic pots of a diameter of 13 cm and covered with a layer of sandy loam of a thickness of about 1 cm. The herbicides in the form of liquid (for example emulsion concentrates) or dry (for example water-dispersible powders) formulations were diluted with deionized water to the required concentrations and applied to the surface of the soil with a spray bar using a water application rate of 300 liters per hectare. In the two experiments shown below (results see tables 2.2.1 and 2.2.2), the herbicide isoxaflutole was used as an aqueous suspension concentrate.\nas §3, with “after the herbicide application. Evaluation” for “after the herbicidal application. Evaluation”"}, "[7]": {"test_system": "Glycine max (soybean), cv. 'Lambert'", "assay": "Pre-emergence application of herbicide H1 (isoxaflutole) after seed dressing with safener", "conditions": "for % damage in GLXMA: four weeks", "method": "as §4, §5, §6\nas §3, with “after the herbicide application. Evaluation” for “after the herbicidal application. Evaluation”"}, "[8]": {"test_system": "Zea mays (corn), cv. 'Lorenzo'", "assay": "Post-emergence application of herbicide H3 (glufosinate-ammonium) and safener by the tank mix method: crop damage", "source_text": "as §2, §3"}, "[9]": {"test_system": "Zea mays (corn), cv. 'Lorenzo'", "assay": "Pre-emergence application of herbicide H1 (isoxaflutole) and safener by the tank mix method: crop damage", "method": "(§7) Seeds of various crop plants and weed species were sown in sandy loam soil in round plastic pots of a diameter of 13 cm and covered with a layer of sandy loam of a thickness of about 1 cm. Herbicides and safeners in the form of liquid (for example emulsion concentrates) or dry (for example water-dispersible powders) formulations were diluted with deionized water to the required concentrations and applied to the surface of the soil with a spray bar using a water application rate of 300 liters per hectare. In the experiment shown below, the safeners were used as 20 percent strength water-dispersible powders and the herbicide isoxaflutole was used as an aqueous suspension concentrate (see table 1.1.1). The pots were placed in a greenhouse under favorable growth conditions. Visual scoring of the herbicidal action was carried out four weeks after the herbicide application. Evaluation was carried out on a percentage basis by comparison with untreated control plants (0%=no noticeable effect compared with the untreated plant, 100%=treated plant dies)."}, "[10]": {"test_system": "Zea mays (corn), cv. 'Lorenzo'", "assay": "Post-emergence application of herbicide H2 (foramsulfuron) after seed dressing with safener", "conditions": "seed dressing with safener 1 g a.i./kg of seed", "method": "The number of crop plant seeds required for each application rate of safener was calculated. Sufficient seeds were weighed-out into glass bottles having a screw-on lid. The volume of the glass bottles was approximately twice that of the seeds weighed out. The safeners were formulated as 20 percent strength water-dispersible powders. These formulations were weighed out to give the required application rates (g of a.i./kg of seed). The samples were added to the seed in the glass containers, and sufficient water to form a suitable seed dressing was then added. The glass bottles were closed and then mounted in an overhead shaker (which turns the bottles at moderate speed for a period of up to one hour) so that the seeds were uniformly covered with the seed dressing. The bottles were opened and the seed was ready for use in pre-emergence or post-emergence experiments, as described below. The seeds treated with safener and untreated seeds were sown in sandy loam soil in round plastic pots of a diameter of 13 cm and covered with a layer of sandy loam of a thickness of about 1 cm. The pots were placed in a greenhouse under favorable growth conditions for a period of about two to three weeks, allowing the plants to reach a growth stage of 2 to 4 leaves. The herbicides in the form of liquid (for example emulsion concentrates) or dry (for example water-dispersible powders) formulations were mixed with a standard additive (based on rapeseed oil methyl ester), diluted with deionized water to the required concentrations and applied to the green parts of the plants and the uncovered part of the soil surface with a spray bar using a water application rate of 300 liters per hectare. In the experiment shown below, the herbicide foramsulfuron was used as 20 percent strength water-dispersible powder (results see table 2.3.1). The pots were placed in a greenhouse under favorable growth conditions. Visual scoring of the herbicidal action was carried out four weeks after the herbicide application. Evaluation was carried out on a percentage basis by comparison with untreated control plants (0%=no noticeable effect compared with the untreated plant, 100%=treated plant dies)."}, "[11]": {"test_system": "Chenopodium album", "assay": "Pre-emergence application of herbicide H1 (isoxaflutole) and safener by the tank mix method: herbicidal action", "conditions": "four weeks", "method": "as §7"}, "[12]": {"test_system": "Setaria viridis", "assay": "Pre-emergence application of herbicide H1 (isoxaflutole) and safener by the tank mix method: herbicidal action", "conditions": "four weeks", "method": "as §7"}, "[13]": {"conditions": "safener 250 g a.i./ha + herbicide H3 (glufosinate-ammonium) 250 g a.i./ha, post-emergence tank mix"}, "[14]": {"conditions": "seed dressing with safener 1 g a.i./kg of seed, then herbicide H1 (isoxaflutole) 100 g a.i./ha pre-emergence"}, "[15]": {"conditions": "safener 250 g a.i./ha + herbicide H1 (isoxaflutole) 100 g a.i./ha, pre-emergence tank mix"}, "[16]": {"conditions": "herbicide H3 (glufosinate-ammonium) 250 g a.i./ha alone, no safener, post-emergence"}, "[17]": {"conditions": "untreated seed (no safener), herbicide H1 (isoxaflutole) 100 g a.i./ha pre-emergence"}, "[18]": {"conditions": "herbicide H1 (isoxaflutole) 100 g a.i./ha alone, no safener, pre-emergence"}}}
{"molecule": "O=C(O)C=Cc1ccccc1F", "note": "[Comp. 146, 2-fluorocinnamic acid]", "values": [{"measurement": "Herbicidal action as % damage in AMARE", "setting": "[1]", "value": 98, "unit": "%"}, {"measurement": "Herbicidal action as % damage in SETVI", "setting": "[2]", "value": 92, "unit": "%"}, {"measurement": "Safener action as % damage reduction in crop plants", "setting": "[3]", "value": 72, "unit": "%"}, {"measurement": "% damage in ZEAMA", "setting": "[3]", "value": 10, "unit": "%"}]}
{"molecule": "O=C(O)C=Cc1ccc(Cl)cc1Cl", "note": "[Comp. 155, 2,4-dichlorocinnamic acid]", "values": [{"measurement": "Herbicidal action as % damage in AMARE", "setting": "[4]; [13]", "value": 94, "unit": "%"}, {"measurement": "Herbicidal action as % damage in CHEAL", "setting": "[5]; [13]", "value": 92, "unit": "%"}, {"measurement": "Safener action as % damage reduction in crop plants", "setting": "[6]; ZEAMA, seed dressing with safener 1 g a.i./kg of seed, herbicide H1 (isoxaflutole) 100 g a.i./ha pre-emergence, versus untreated seed", "value": 72, "unit": "%"}, {"measurement": "% damage in ZEAMA", "setting": "[6]; [14]", "value": 7, "unit": "%"}, {"measurement": "Safener action as % damage reduction in crop plants", "setting": "[7]; GLXMA, seed dressing with safener 1 g a.i./kg of seed, herbicide H1 (isoxaflutole) 100 g a.i./ha pre-emergence, versus untreated seed", "value": 64, "unit": "%"}, {"measurement": "% damage in GLXMA", "setting": "[7]; [14]", "value": 30, "unit": "%"}, {"measurement": "Safener action as % damage reduction in crop plants", "setting": "[8]; ZEAMA, safener 250 g a.i./ha + herbicide H3 (glufosinate-ammonium) 250 g a.i./ha, post-emergence tank mix, versus herbicide alone", "value": 66, "unit": "%"}, {"measurement": "% damage in ZEAMA", "setting": "[8]; safener 250 g a.i./ha + herbicide H3 (glufosinate-ammonium) 250 g a.i./ha, post-emergence tank mix, visual scoring four weeks after application", "value": 21, "unit": "%"}, {"measurement": "Herbicidal action as % damage in AMARE", "setting": "[1]", "value": 98, "unit": "%"}, {"measurement": "Herbicidal action as % damage in SETVI", "setting": "[2]", "value": 95, "unit": "%"}, {"measurement": "Safener action as % damage reduction in crop plants", "setting": "[9]; ZEAMA, safener 250 g a.i./ha + herbicide H1 (isoxaflutole) 100 g a.i./ha, pre-emergence tank mix, versus herbicide alone", "value": 74, "unit": "%"}, {"measurement": "% damage in ZEAMA", "setting": "[9]; safener 250 g a.i./ha + herbicide H1 (isoxaflutole) 100 g a.i./ha, pre-emergence tank mix, visual scoring four weeks after application, 0%=no effect, 100%=plant dies", "value": 7, "unit": "%"}, {"measurement": "Safener action as % damage reduction in crop plants", "setting": "[10]; ZEAMA, herbicide H2 (foramsulfuron) 40 g a.i./ha post-emergence, versus untreated seed", "value": 88, "unit": "%"}, {"measurement": "% damage in ZEAMA", "setting": "[10]; then herbicide H2 (foramsulfuron) 40 g a.i./ha post-emergence, four weeks", "value": 4, "unit": "%"}, {"measurement": "Safener action as % damage reduction in crop plants", "setting": "[3]", "value": 83, "unit": "%"}, {"measurement": "% damage in ZEAMA", "setting": "[3]", "value": 6, "unit": "%"}, {"measurement": "Herbicidal action as % damage in CHEAL", "setting": "[11]; [15]", "value": 95, "unit": "%"}, {"measurement": "Herbicidal action as % damage in SETVI", "setting": "[12]; [15]", "value": 95, "unit": "%"}]}
{"molecule": "CP(=O)(O)CCC(N)C(=O)O", "note": "(stereo not drawn) [Herbicide H3, glufosinate-ammonium, reference compound]", "values": [{"measurement": "Herbicidal action as % damage in AMARE", "setting": "[4]; [16]", "value": 90, "unit": "%"}, {"measurement": "Herbicidal action as % damage in CHEAL", "setting": "[5]; [16]", "value": 92, "unit": "%"}, {"measurement": "% damage in ZEAMA", "setting": "[8]; herbicide H3 (glufosinate-ammonium) 250 g a.i./ha alone, no safener, post-emergence, four weeks", "value": 62, "unit": "%"}]}
{"molecule": "CS(=O)(=O)c1cc(C(F)(F)F)ccc1C(=O)c1cnoc1C1CC1", "note": "[Herbicide H1, isoxaflutole, reference compound]", "values": [{"measurement": "% damage in ZEAMA", "setting": "[6]; [17]", "value": 25, "unit": "%"}, {"measurement": "% damage in GLXMA", "setting": "[7]; [17]", "value": 83, "unit": "%"}, {"measurement": "% damage in ZEAMA", "setting": "[9]; herbicide H1 (isoxaflutole) 100 g a.i./ha alone, no safener, pre-emergence, four weeks", "value": 27, "unit": "%"}, {"measurement": "Herbicidal action as % damage in CHEAL", "setting": "[11]; [18]", "value": 92, "unit": "%"}, {"measurement": "Herbicidal action as % damage in SETVI", "setting": "[12]; [18]", "value": 95, "unit": "%"}]}
